In PubChem BioAssay AID212 (DTP/NCI, 2004):
Where “and” joins values, the source holds several entries; their conditions need not be identical. Equal values may be shown once. Inconclusive results are not listed.

Test system: BDF1 mice, colon carcinoma 38 sc, T/C %
Experiment: NCI In Vivo Anticancer Drug Screen. Data for tumor model Colon Carcinoma 38 (subcutaneous) in B6D2F1 (BDF1) mice
Description: The antitumor activity of compounds was measured in mice bearing transplantable tumors. Survival or tumor size were measured and the results are expressed as the measurement made in the treated group (T) divided by the measurement made in the vehicle treated control group (C). The tumor model used in this assay is Colon Carcinoma 38 (subcutaneous) in B6D2F1 (BDF1) mice

In the case of `COc1cc(C2c3cc4c(cc3C(O)C(CO)C2CO)OCO4)cc(OC)c1OC` (centres undefined), the T/C (endpoint: median tumor weight (est.), dose: 12.5 mg/kg/injection, schedule: Q07DX002 (ip), vehicle: saline with Tween-80, higher = larger tumour) is reported as 81 % of control, the T/C (endpoint: median tumor weight (est.), dose: 25.0 mg/kg/injection, schedule: Q07DX002 (ip), vehicle: saline with Tween-80, higher = larger tumour) is reported as 155 % of control and the T/C (endpoint: median tumor weight (est.), dose: 50.0 mg/kg/injection, schedule: Q07DX002 (ip), vehicle: saline with Tween-80, higher = larger tumour) is reported as 180 % of control. For the same compound, the T/C (endpoint: median tumor weight (est.), dose: 100.0 mg/kg/injection, schedule: Q07DX002 (ip), vehicle: saline with Tween-80, higher = larger tumour) was 203 % of control, the T/C (endpoint: median tumor weight (est.), dose: 200.0 mg/kg/injection, schedule: Q07DX002 (ip), vehicle: saline with Tween-80, higher = larger tumour) was 160 % of control and the T/C (endpoint: median tumor weight (est.), dose: 400.0 mg/kg/injection, schedule: Q07DX002 (ip), vehicle: saline with Tween-80, higher = larger tumour) was 174 % of control.

`O=C1c2ccccc2C(=O)c2c(NCCNCCO)ccc(NCCNCCO)c21` was tested, and the T/C (endpoint: median survival time, dose: 20.0 mg/kg/injection, schedule: Q04DX004 (ip), vehicle: saline, higher = longer survival) was 110 % of control, the T/C (endpoint: median survival time, dose: 40.0 mg/kg/injection, schedule: Q04DX004 (ip), vehicle: saline, higher = longer survival) was 110 % of control and the T/C (endpoint: median survival time, dose: 80.0 mg/kg/injection, schedule: Q04DX004 (ip), vehicle: saline, higher = longer survival) was 120 % of control. For the same compound, the T/C (endpoint: median tumor weight (est.), dose: 1.0 mg/kg/injection, schedule: Q07DX002 (ip), vehicle: saline, higher = larger tumour) was 89 % of control, the T/C (endpoint: median tumor weight (est.), dose: 1.5 mg/kg/injection, schedule: Q07DX003 (ip), vehicle: saline with Tween-80, higher = larger tumour) was 47 % of control and 64 % of control and the T/C (endpoint: median tumor weight (est.), dose: 2.0 mg/kg/injection, schedule: Q07DX002 (ip), vehicle: saline, higher = larger tumour) was 77 % of control. For the same compound, the T/C (endpoint: median tumor weight (est.), dose: 3.0 mg/kg/injection, schedule: Q07DX003 (ip), vehicle: saline with Tween-80, higher = larger tumour) was 81 % of control, the T/C (endpoint: median tumor weight (est.), dose: 3.0 mg/kg/injection, schedule: Q07DX003 (ip), vehicle: saline, higher = larger tumour) was 59 % of control and 72 % of control and the T/C (endpoint: median tumor weight (est.), dose: 4.0 mg/kg/injection, schedule: Q07DX002 (ip), vehicle: acid diluted with saline, higher = larger tumour) was 82 % of control. The T/C (endpoint: median tumor weight (est.), dose: 4.0 mg/kg/injection, schedule: Q07DX002 (ip), vehicle: saline, higher = larger tumour) was 66 % of control, the T/C (endpoint: median tumor weight (est.), dose: 6.0 mg/kg/injection, schedule: Q07DX003 (ip), vehicle: saline with Tween-80, higher = larger tumour) was 11 % of control and the T/C (endpoint: median tumor weight (est.), dose: 8.0 mg/kg/injection, schedule: Q07DX002 (ip), vehicle: Klucel (hydroxypropylcellulose) (HPC), higher = larger tumour) was 107 % of control. For the same compound, the T/C (endpoint: median tumor weight (est.), dose: 8.0 mg/kg/injection, schedule: Q07DX002 (ip), vehicle: acid diluted with saline, higher = larger tumour) was 70 % of control, the T/C (endpoint: median tumor weight (est.), dose: 8.0 mg/kg/injection, schedule: Q07DX002 (ip), vehicle: saline, higher = larger tumour) was 82 % of control and the T/C (endpoint: median tumor weight (est.), dose: 8.0 mg/kg/injection, schedule: Q07DX003 (ip), vehicle: Klucel (hydroxypropylcellulose) (HPC), higher = larger tumour) was 65 % of control. For the same compound, the T/C (endpoint: median tumor weight (est.), dose: 8.0 mg/kg/injection, schedule: Q07DX003 (ip), vehicle: water, higher = larger tumour) was 56 % of control, the T/C (endpoint: median tumor weight (est.), dose: 16.0 mg/kg/injection, schedule: Q07DX002 (ip), vehicle: Klucel (hydroxypropylcellulose) (HPC), higher = larger tumour) was 120 % of control and the T/C (endpoint: median tumor weight (est.), dose: 16.0 mg/kg/injection, schedule: Q07DX002 (ip), vehicle: acid diluted with saline, higher = larger tumour) was 39 % of control. For the same compound, the T/C (endpoint: median tumor weight (est.), dose: 16.0 mg/kg/injection, schedule: Q07DX002 (ip), vehicle: saline, higher = larger tumour) was 48 % of control, the T/C (endpoint: median tumor weight (est.), dose: 16.0 mg/kg/injection, schedule: Q07DX003 (ip), vehicle: Klucel (hydroxypropylcellulose) (HPC), higher = larger tumour) was 54 % of control and the T/C (endpoint: median tumor weight (est.), dose: 16.0 mg/kg/injection, schedule: Q07DX003 (ip), vehicle: water, higher = larger tumour) was 47 % of control. For the same compound, the T/C (endpoint: median tumor weight (est.), dose: 25.0 mg/kg/injection, schedule: Q07DX003 (ip), vehicle: Klucel (hydroxypropylcellulose) (HPC), higher = larger tumour) was 46 % of control, the T/C (endpoint: median tumor weight (est.), dose: 25.0 mg/kg/injection, schedule: Q07DX003 (iv), vehicle: Klucel (hydroxypropylcellulose) (HPC), higher = larger tumour) was 4 % of control and 18 % of control and 25 % of control and the T/C (endpoint: median tumor weight (est.), dose: 32.0 mg/kg/injection, schedule: Q07DX002 (ip), vehicle: Klucel (hydroxypropylcellulose) (HPC), higher = larger tumour) was 65 % of control. For the same compound, the T/C (endpoint: median tumor weight (est.), dose: 32.0 mg/kg/injection, schedule: Q07DX002 (ip), vehicle: acid diluted with saline, higher = larger tumour) was 4 % of control, the T/C (endpoint: median tumor weight (est.), dose: 32.0 mg/kg/injection, schedule: Q07DX002 (ip), vehicle: saline, higher = larger tumour) was 10 % of control and the T/C (endpoint: median tumor weight (est.), dose: 32.0 mg/kg/injection, schedule: Q07DX003 (ip), vehicle: Klucel (hydroxypropylcellulose) (HPC), higher = larger tumour) was 52 % of control. The T/C (endpoint: median tumor weight (est.), dose: 32.0 mg/kg/injection, schedule: Q07DX003 (ip), vehicle: water, higher = larger tumour) was 28 % of control, the T/C (endpoint: median tumor weight (est.), dose: 50.0 mg/kg/injection, schedule: Q07DX003 (ip), vehicle: Klucel (hydroxypropylcellulose) (HPC), higher = larger tumour) was 45 % of control and the T/C (endpoint: median tumor weight (est.), dose: 50.0 mg/kg/injection, schedule: Q07DX003 (iv), vehicle: Klucel (hydroxypropylcellulose) (HPC), higher = larger tumour) was 11 % of control and 17 % of control. The T/C (endpoint: median tumor weight (est.), dose: 64.0 mg/kg/injection, schedule: Q07DX002 (ip), vehicle: Klucel (hydroxypropylcellulose) (HPC), higher = larger tumour) was 26 % of control.

With `COc1cc(C)c2c(c1C=O)Oc1c(c(C)c(O)c3c1C(O)OC3=O)OC2=O` (centres undefined) the T/C (endpoint: median tumor weight (est.), dose: 3.12 mg/kg/injection, schedule: Q07DX003 (ip), vehicle: suspension in saline, higher = larger tumour) was 93 % of control, the T/C (endpoint: median tumor weight (est.), dose: 6.25 mg/kg/injection, schedule: Q07DX003 (ip), vehicle: suspension in saline, higher = larger tumour) was 60 % of control and the T/C (endpoint: median tumor weight (est.), dose: 12.5 mg/kg/injection, schedule: Q07DX003 (ip), vehicle: suspension in saline, higher = larger tumour) was 65 % of control. For the same compound, the T/C (endpoint: median tumor weight (est.), dose: 25.0 mg/kg/injection, schedule: Q07DX003 (ip), vehicle: suspension in saline, higher = larger tumour) was 93 % of control and the T/C (endpoint: median tumor weight (est.), dose: 50.0 mg/kg/injection, schedule: Q07DX003 (ip), vehicle: suspension in saline, higher = larger tumour) was 87 % of control.

With `CC(=O)OCC1OC([S-])C(OC(C)=O)C(OC(C)=O)C1OC(C)=O.CC[PH+](CC)CC.CC[PH+](CC)CC.[Au].[Au]` (centres undefined) the T/C (endpoint: median tumor weight (est.), dose: 2.5 mg/kg/injection, schedule: Q07DX002 (ip), vehicle: Klucel (hydroxypropylcellulose) (HPC), higher = larger tumour) was 99 % of control and the T/C (endpoint: median tumor weight (est.), dose: 10.0 mg/kg/injection, schedule: Q07DX002 (ip), vehicle: Klucel (hydroxypropylcellulose) (HPC), higher = larger tumour) was 89 % of control and 93 % of control.
